In assay [1] the target is T1, Prostaglandin G/H synthase 1 (Ovis aries, UniProt P05979).
T1 sequence (P05979 whole entry): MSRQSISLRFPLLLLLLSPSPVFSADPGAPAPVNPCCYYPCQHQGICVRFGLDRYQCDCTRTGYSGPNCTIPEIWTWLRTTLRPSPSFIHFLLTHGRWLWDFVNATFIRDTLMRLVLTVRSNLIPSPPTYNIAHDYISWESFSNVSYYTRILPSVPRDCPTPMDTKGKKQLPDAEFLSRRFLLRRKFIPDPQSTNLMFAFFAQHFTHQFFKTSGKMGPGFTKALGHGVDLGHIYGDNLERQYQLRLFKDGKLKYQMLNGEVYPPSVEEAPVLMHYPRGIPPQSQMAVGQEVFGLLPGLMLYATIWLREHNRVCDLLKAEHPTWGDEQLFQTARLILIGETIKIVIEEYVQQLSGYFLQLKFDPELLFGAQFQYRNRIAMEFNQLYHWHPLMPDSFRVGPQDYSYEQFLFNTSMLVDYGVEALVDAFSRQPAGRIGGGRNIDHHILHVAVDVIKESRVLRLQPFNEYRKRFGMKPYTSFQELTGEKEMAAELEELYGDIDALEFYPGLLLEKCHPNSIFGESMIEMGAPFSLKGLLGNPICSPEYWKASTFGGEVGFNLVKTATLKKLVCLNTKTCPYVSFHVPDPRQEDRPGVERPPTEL
As to the kind of experiment: COX Inhibitor Screening Assay. The conditions noted are these: pH 8; 25 °C. The method, then: (§1) Dilute 3 mL of assay buffer concentrate with 27 mL of HPLC - grade water. This final assay buffer (0.1 M Tris-HCl, pH 8) should be used for dilution of heme and COX enzymes prior to assaying. This vial contains a solution of heme in dimethylsulphoxide. Dilute 88 μL of heme with 1.912 mL of diluted assay buffer prior to use. A vial contains a solution of ovine COX-1 and should be kept on ice when thawed. Dilute 200 μL of enzyme with 400 μL of diluted assay buffer and store on ice. A vial contains a solution of ovine COX-2 and should be kept on ice when thawed. Dilute 200 μL of enzyme with 400 μL of diluted assay buffer and store on ice. A vial contains a solution or arachidonic acid in ethanol. […] Use the prepared arachidonic acid solution within 30 min. A 20 μL aliquot will yield a final concentration of 100 μM in the wells. A vial contains 0.1 M potassium hydroxide (KOH). A vial contains a solution of TMPD. Background wells: add 160 μL of assay buffer, and 10 μL of heme to three wells. 100% Initial Activity wells: add 150 μL assay buffer, 10 μL of heme, and 10 μL of enzyme (either COX-1 or COX-2) to three wells. Inhibitor wells: add 150 μL of assay buffer, 10 μL of heme, and10 μL of enzyme (either COX-1 or COX-2) to three wells. Add 10 μL of inhibitor to the inhibitor wells and 10 μL of solvent (methanol, dimethylsulphoxide or ethanol) to the 100% Initial Activity wells and background wells, this process was repeated three times. Carefully shake the plate for a few seconds and incubate for five minutes at 25 °C. Add 20 μL of the colorimetric substratesolution to all the wells that you are using. Add 20 μL of arachidonic acid to all the wells you are using. Carefully shake the plate for few seconds and incubate for five minutes at 25 °C. Read the absorbance at 590 nm using a plate reader.

The target in assay [2] is T2, Prostaglandin G/H synthase 2 (Ovis aries, UniProt P79208).
T2 sequence (P79208 whole entry): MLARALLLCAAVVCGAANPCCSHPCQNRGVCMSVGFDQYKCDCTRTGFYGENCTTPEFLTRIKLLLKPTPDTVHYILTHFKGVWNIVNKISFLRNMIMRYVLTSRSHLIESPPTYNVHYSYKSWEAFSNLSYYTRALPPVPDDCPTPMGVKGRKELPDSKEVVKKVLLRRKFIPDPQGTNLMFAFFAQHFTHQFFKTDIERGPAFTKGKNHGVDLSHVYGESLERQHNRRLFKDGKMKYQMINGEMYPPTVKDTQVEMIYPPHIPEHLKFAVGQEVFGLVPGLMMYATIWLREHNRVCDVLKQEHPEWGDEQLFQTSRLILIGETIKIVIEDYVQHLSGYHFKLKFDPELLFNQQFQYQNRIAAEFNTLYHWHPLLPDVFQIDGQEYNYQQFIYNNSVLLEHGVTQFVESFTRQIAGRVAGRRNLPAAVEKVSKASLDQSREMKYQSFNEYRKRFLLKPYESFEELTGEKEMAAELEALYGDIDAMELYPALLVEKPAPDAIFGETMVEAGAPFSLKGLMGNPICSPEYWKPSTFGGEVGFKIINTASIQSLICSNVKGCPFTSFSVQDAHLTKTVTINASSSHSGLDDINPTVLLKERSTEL
The assay can be described thus: COX Inhibitor Screening Assay. The following applies: pH 8; 25 °C. The method, then:
as §1

pIC50: −log10 of the molar value.

As for `O=C1NN(c2ccccc2)C(c2cccnc2)=N/C1=C/c1ccccc1O` [5-(2-Hydroxybenzylidene)-2-phenyl-3-(pyridin-3-yl)-1,2-dihydro-1,2,4-triazin-6(5H)-one (IVf)], the results for the pIC50 in assay [1] and in assay [2] were 7.07 and 7.77, respectively.

On to `O=C1NN(c2ccccc2)C(c2cccnc2)=N/C1=C/c1ccc(O)cc1` [5-(4-Hydroxybenzylidene)-2-phenyl-3-(pyridin-3-yl)-1,2-dihydro-1,2,4-triazin-6(5H)-one (IVc)], for which the pIC50 in assay [1] is 7.02; in assay [2], 7.72.

Take `O=C1NN(c2ccccc2)C(c2cccnc2)=N/C1=C/c1ccccc1` [5-Benzylidene-2-phenyl-3-(pyridin-3-yl)-1,2-dihydro-1,2,4-triazin-6(5H)-one (IVa)]: the pIC50 in assay [1] is 6.82; in assay [2], 7.46.

For `O=C1OC(c2cccnc2)=N/C1=C\c1cccnc1` [2-(pyridin-3-yl)-4-(pyridin-3-ylmethylene)oxazol-5(4H)-one (IIIg)], the figures for the pIC50 in assay [1] and in assay [2] were 6.47 and 7.12, respectively.

As to `O=C1OC(c2cccnc2)=N/C1=C/c1ccc(Cl)cc1` [4-(4-Chlorobenzylidene)-2-(pyridin-3-yl)oxazol-5(4H)-one (IIIb)], the pIC50 in assay [1] is 6.35; in assay [2], 6.97.

For `O=C1OC(c2cccnc2)=N/C1=C/c1ccc(O)cc1` [4-(4-Hydroxybenzylidene)-2-(pyridin-3-yl)oxazol-5(4H)-one (IIIc)], the pIC50 in assay [1] was 6.57; in assay [2], 7.62.

Take `CN(C)c1ccc(/C=C2/N=C(c3cccnc3)N(c3ccccc3)NC2=O)cc1` [5-(4-(Dimethylamino)benzylidene)-2-phenyl-3-(pyridin-3-yl)-1,2-dihydro-1,2,4-triazin-6(5H)-one (IVe)]: the pIC50 in assay [1] is 6.94; in assay [2], 7.72.

On to `O=C1OC(c2cccnc2)=N/C1=C\c1ccccc1` [4-Benzylidene-2-(pyridin-3-yl) oxazol-5(4H)-one (IIIa)], for which the results for the pIC50 in assay [1] and in assay [2] were 6.36 and 7.11, respectively.

`O=C1OC(c2cccnc2)=N/C1=C\c1ccccc1O` [4-(2-Hydroxybenzylidene)-2-(pyridin-3-yl)oxazol-5(4H)-one (IIIf)]: the pIC50 was 6.36 in assay [1] and 7.07 in assay [2].

On to `O=C1NN(c2ccccc2)C(c2cccnc2)=N/C1=C/c1cccnc1` [2-Phenyl-3-(pyridin-3-yl)-5-(pyridin-3-ylmethylene)-1,2-dihydro-1,2,4-triazin-6(5H)-one (IVg)], for which the pIC50 in assay [1] was 7.08; in assay [2], 7.85.

On to `O=C1NN(c2ccccc2)C(c2cccnc2)=N/C1=C/c1ccc(Cl)cc1` [5-(4-Chlorobenzylidene)-2-phenyl-3-(pyridin-3-yl)-1,2-dihydro-1,2,4-triazin-6(5H)-one (IVb)], for which the pIC50 in assay [1] was 6.80; in assay [2], 7.47.

`COc1ccc(/C=C2/N=C(c3cccnc3)N(c3ccccc3)NC2=O)cc1` [5-(4-Methoxybenzylidene)-2-phenyl-3-(pyridin-3-yl)-1,2-dihydro-1,2,4-triazin-6(5H)-one (IVd)] showed a pIC50 in assay [1] of 6.97.

In the case of `COc1ccc(/C=C2/N=C(c3cccnc3)OC2=O)cc1` [4-(4-Methoxybenzylidene)-2-(pyridin-3-yl)oxazol-5(4H)-one (IIId)], the values for the pIC50 in assay [1] and in assay [2] were 6.68 and 7.23, respectively.

Turning to `CN(C)c1ccc(/C=C2/N=C(c3cccnc3)OC2=O)cc1` [4-(4-(Dimethylamino)benzylidene)-2-(pyridin-3-yl)oxazol-5(4H)-one (IIIe)], the pIC50 in assay [1] is 7.10; in assay [2] it was 7.72.

In general, pIC50 refers to the IC50 on a negative log10 scale, so that one unit is a factor of ten. Higher therefore signals a low IC50.

The values above are taken from BindingDB's records for doi:10.1016/j.bioorg.2017.04.012 (Cairo University, 2017).
